Measurements reported in patent US4853467A, “Nitrogen containing derivatives of epipodophyllotoxin glucosides” (Bristol-Myers Company, priority 1987, dated 1989).
Converted amounts (≈) assume the structure as drawn. Counter-ions that a name gives are not always drawn.

Key:
[1] = system: P388 murine leukemia; assay: P388 Leukemia, antitumor activity against murine P388 leukemia; type: in vivo, murine (female CDF1 mice); settings: i.p. on days 5 and 8; 10^6 P388 cells i.p.; maximum effect over doses; >=125 considered significant; etoposide values in parentheses are positive control in same experiment
Method: Female CDF1 mice were implanted intraperitoneally with a tumor inoculum of 10^6 ascites cells of P388 murine leukemia and treated with various doses of a test compound; four mice were used for each dose level and ten were used as saline-treated control. The compounds were administered by intraperitoneal injection on days 5 and 8 (day 1 being the day of tumor implantation). Antitumor activity was expressed as % T/C which is the ratio of the median survival time (MST) of drug-treated group to the MST of saline-treated control group. A compound showing a % T/C value of 125 or greater is generally considered to have significant antitumor activity in the P388 test. The experiment lasted 31 days at the end of which time the number of survivors was noted. Table I presents the results of the above-described evaluation; only the maximum % T/C and the dose showing the maximum effect are reported.

[2] = system: B16-F10 murine melanoma; assay: In vitro cytotoxicity assay, B16-F10 murine melanoma; type: cell-based; settings: two values per compound, four-fold serial dilution; for In vitro cytotoxicity IC50, B-16-F10: B16-F10 murine melanoma; for IC50: Mus musculus, B16-F10, B16-F10 murine melanoma, read-out: In vitro cytotoxicity IC50, B-16-F10
Method: (§1) The in vitro cytotoxicity assay involved growing various mammalian tumor cells, including human tumor cells, on microtitre plates employing established tissue culture methods. The concentration of each compound required to inhibit cell growth by 50% (IC50) was then determined by a four-fold serial dilution technique. The validity of the method has been supported by a report published in the "Proceedings of the American Association for Cancer Research", 1984, 25:1891 (Abst. No. 328). Tumor cells of the following types were employed for each compound tested: B16-F10 murine melanoma; Moser human colon; SW900 human lung and three human colon tumor cell lines namely HCT-116, HCT-VM, and HCT-VP, the latter two being resistant to teniposide (VM) and etoposide (VP), respectively. IC50 values less than 500 μg/ml are a positive indicator of antitumor activity. Table II presents IC50 values of various compounds of the present invention against the aforementioned cell lines.

[3] = system: HCT-116; assay: In vitro cytotoxicity assay, HCT-116 human colon tumor; type: cell-based; settings: two values per compound, four-fold serial dilution; for In vitro cytotoxicity IC50, HCT-116: HCT-116 human colon; for IC50: Homo sapiens, HCT-116, HCT-116 human colon
Method: as §1

[4] = system: HCT/VP35; assay: In vitro cytotoxicity assay, HCT/VP35 etoposide-resistant human colon tumor; type: cell-based; settings: two values per compound, four-fold serial dilution; for In vitro cytotoxicity IC50, HCT/VP35: HCT/VP35, resistant to etoposide; for IC50: Homo sapiens, HCT/VP35, HCT/VP35, resistant to etoposide
Method: as §1

[5] = system: HCT/VM34; assay: In vitro cytotoxicity assay, HCT/VM34 teniposide-resistant human colon tumor; type: cell-based; settings: HCT/VM34, resistant to teniposide, two values per compound, four-fold serial dilution; for IC50: Homo sapiens
Method: as §1

[6] = system: Moser human colon; assay: In vitro cytotoxicity assay, Moser human colon; type: cell-based; settings: two values per compound, four-fold serial dilution; for IC50: Homo sapiens
Method: as §1

[7] = system: SW900 human lung; assay: In vitro cytotoxicity assay, SW900 human lung; type: cell-based; settings: two values per compound, four-fold serial dilution; for IC50: Homo sapiens, SW900, SW900 human lung; for In vitro cytotoxicity IC50, SW900: SW900 human lung
Method: as §1

Structure (SMILES) | Max % T/C (ratio of median survival time of drug-treated group to saline-treated control group) [1] | In vitro cytotoxicity IC50, B-16-F10 [2] | IC50 [2] | In vitro cytotoxicity IC50, HCT-116 [3] | IC50 [3] | In vitro cytotoxicity IC50, HCT/VP35 [4] | IC50 [4] | In vitro cytotoxicity IC50, HCT/VM34 [5] | IC50 [5] | IC50 [6] | In vitro cytotoxicity IC50, MOSER [6] | IC50 [7] | In vitro cytotoxicity IC50, SW900 [7]
COc1ccc(C=Nc2cc([C@@H]3c4cc5c(cc4[C@@H](O[C@@H]4O[C@@H]6CO[C@@H](C)O[C@H]6[C@H](O)[C@H]4O)[C@H]4COC(=O)[C@H]34)OCO5)cc(OC)c2O)cc1 [Example 20, 3'-Desmethoxy-3'-[[(4-methoxy)phenyl]methylene]amino etoposide] | 175% | 19.8 µg/mL | 13.3 µg/mL (≈ 19.2 µM) | 5.6 µg/mL | 9.6 µg/mL (≈ 13.9 µM) | 61 µg/mL | 35 µg/mL (≈ 50.6 µM) |  |  |  |  |  | 
COc1cc([C@@H]2c3cc4c(cc3[C@@H](O[C@@H]3O[C@@H]5CO[C@@H](C)O[C@H]5[C@H](O)[C@H]3O)[C@H]3COC(=O)[C@H]23)OCO4)cc(N=Cc2ccncc2)c1O [Example 19, 3'-Desmethoxy-3'-[(4-pyridyl)methylene]amino etoposide] | 230% | 16.4 µg/mL | 16.9 µg/mL (≈ 25.5 µM) | 12.7 µg/mL | 13.9 µg/mL (≈ 21 µM) |  |  | 19.3 µg/mL | 21 µg/mL (≈ 31.7 µM) | 38 µg/mL (≈ 57.3 µM) | 32 µg/mL | 42 µg/mL (≈ 63.4 µM) | 28 µg/mL
COc1cc([C@@H]2c3cc4c(cc3[C@@H](O[C@@H]3O[C@@H]5CO[C@@H](C)O[C@H]5[C@H](O)[C@H]3O)[C@H]3COC(=O)[C@H]23)OCO4)cc(NC(C)=O)c1O [Example 7, 3'-Acetylamino-3'-desmethoxy etoposide] | 135% | 63 µg/mL | 54 µg/mL (≈ 87.7 µM) | 63 µg/mL | 60 µg/mL (≈ 97.5 µM) | 83 µg/mL | 90 µg/mL (≈ 146 µM) | 65 µg/mL | 63 µg/mL (≈ 102 µM) |  |  |  | 
COc1cc([C@@H]2c3cc4c(cc3[C@@H](O[C@@H]3O[C@@H]5CO[C@@H](C)O[C@H]5[C@H](O)[C@H]3O)[C@H]3COC(=O)[C@H]23)OCO4)cc(NC(=O)NCCCl)c1O [Example 10, 3'-[(2-Chloroethylamino)carbonyl]amino-3'-desmethoxy etoposide] | 110% | 87 µg/mL | 57 µg/mL (≈ 83.9 µM) | 78 µg/mL | 71 µg/mL (≈ 105 µM) | 106 µg/mL | 92 µg/mL (≈ 135 µM) | 100 µg/mL | 81 µg/mL (≈ 119 µM) |  |  |  | 
COc1cc([C@@H]2c3cc4c(cc3[C@@H](O[C@@H]3O[C@@H]5CO[C@@H](C)O[C@H]5[C@H](O)[C@H]3O)[C@H]3COC(=O)[C@H]23)OCO4)cc(N)c1O [Example 3, 3'-Amino-3'-desmethoxy etoposide] | 228% |  |  |  |  |  |  |  |  |  |  |  | 
COc1cc([C@@H]2c3cc4c(cc3[C@@H](O[C@@H]3O[C@@H]5CO[C@@H](C)O[C@H]5[C@H](O)[C@H]3O)[C@H]3COC(=O)[C@H]23)OCO4)cc([N+]#N)c1[O-] [Example 25, 3'-Desmethoxy-3'-diazonium etoposide hydroxide inner salt] | 240% | 25 µg/mL | 29 µg/mL | 38 µg/mL | 24 µg/mL | 102 µg/mL | 78 µg/mL | 43 µg/mL | 38 µg/mL |  |  |  | 
CC(=O)NC1=CC([C@@H]2c3cc4c(cc3[C@@H](O[C@@H]3O[C@@H]5CO[C@@H](C)O[C@H]5[C@H](O)[C@H]3O)[C@H]3COC(=O)[C@@H]32)OCO4)=CC(=O)C1=O [Example 28, 5'-Desmethoxy-5'-acetylamino etoposide 3',4'-orthoquinone] | 125% | 81 µg/mL | 72 µg/mL (≈ 120 µM) | 68 µg/mL | 66 µg/mL (≈ 110 µM) | 70 µg/mL | 84 µg/mL (≈ 140 µM) | 64 µg/mL | 58 µg/mL (≈ 96.7 µM) | 87 µg/mL (≈ 145 µM) | 71 µg/mL |  | 
COC1=CC([C@@H]2c3cc4c(cc3[C@@H](O[C@@H]3O[C@@H]5CO[C@@H](C)O[C@H]5[C@H](O)[C@H]3O)[C@H]3COC(=O)[C@@H]32)OCO4)=CC(=NOCc2ccccc2)C1=O [Example 2, Etoposide-ortho-quinone-3'-O-benzyloxime] | 242% |  |  |  |  |  |  |  |  |  |  |  | 
COc1cc([C@@H]2c3cc4c(cc3[C@@H](O[C@@H]3O[C@@H]5CO[C@@H](C)O[C@H]5[C@H](O)[C@H]3O)[C@H]3COC(=O)[C@H]23)OCO4)cc2ncoc12 [Example 27, Etoposide benzoxazole derivative] | 165% | 4.3 µg/mL | 5.3 µg/mL (≈ 9.08 µM) |  |  | 15.6 µg/mL | 26 µg/mL (≈ 44.6 µM) | 10.6 µg/mL | 14 µg/mL (≈ 24 µM) | 25 µg/mL (≈ 42.8 µM) | 27 µg/mL |  | 
CON=C1C=C([C@@H]2c3cc4c(cc3[C@@H](O[C@@H]3O[C@@H]5CO[C@@H](C)O[C@H]5[C@H](O)[C@H]3O)[C@H]3COC(=O)[C@@H]32)OCO4)C=C(OC)C1=O [Example 1, Etoposide-ortho-quinone-3'-O-methyloxime] | 200% |  |  |  |  |  |  |  |  |  |  |  | 
COc1cc([C@@H]2c3cc4c(cc3[C@@H](O[C@@H]3O[C@@H]5CO[C@@H](C)O[C@H]5[C@H](O)[C@H]3O)[C@H]3COC(=O)[C@H]23)OCO4)cc(N=Cc2ccco2)c1O [Example 18, 3'-Desmethoxy-3'-[(2-furyl)methylene]amino etoposide] | 200% | 15.3 µg/mL | 12.5 µg/mL (≈ 19.2 µM) | 18.4 µg/mL | 29 µg/mL (≈ 44.5 µM) |  |  |  |  | 40 µg/mL (≈ 61.4 µM) | 37 µg/mL | 42 µg/mL (≈ 64.5 µM) | 40 µg/mL
COc1cc([C@@H]2c3cc4c(cc3[C@@H](O[C@@H]3O[C@@H]5CO[C@@H](C)O[C@H]5[C@H](O)[C@H]3O)[C@H]3COC(=O)[C@H]23)OCO4)cc(NS(C)(=O)=O)c1O [Example 12, 3'-Desmethoxy-3'-methanesulfonamido etoposide] | 150% | 54 µg/mL | 61 µg/mL (≈ 93.6 µM) | 62 µg/mL | 54 µg/mL (≈ 82.9 µM) | 132 µg/mL | 88 µg/mL (≈ 135 µM) |  |  |  |  | > 188 µg/mL | 
COc1cc([C@@H]2c3cc4c(cc3[C@@H](O[C@@H]3O[C@@H]5CO[C@@H](C)O[C@H]5[C@H](O)[C@H]3O)[C@H]3COC(=O)[C@H]23)OCO4)cc(N=Cc2cc(OC)c(OC)c(OC)c2)c1O [Example 21, 3'-Desmethoxy-3'-[[(3,4,5-trimethoxy)phenyl]methylene]amino etoposide] | 225% | 4.3 µg/mL | 5.3 µg/mL (≈ 7.05 µM) |  |  | 15.6 µg/mL | 26 µg/mL (≈ 34.6 µM) | 10.6 µg/mL | 14 µg/mL (≈ 18.6 µM) | 25 µg/mL (≈ 33.3 µM) | 27 µg/mL |  | 
